Measured values published in ChEMBL document CHEMBL5576150, “Synthesis and Biological Evaluation of Pyrazole-Pyrimidones as a New Class of Correctors of the Cystic Fibrosis Transmembrane Conductance Regulator (CFTR)” (J Med Chem, 2024).
Activity calls are given as the source filed them. No cut-off for these calls is given here.

Experiments:
[1] = test system: Cystic fibrosis transmembrane conductance regulator (Homo sapiens), P13569 [F508del]; assay: Corrector activity at 3xHA-tagged full-length human CFTR F508del mutant expressed in human CFBE41o- cells assessed as restoration of plasma membrane density of channel at 10 uM incubated for 24 hrs in presence of VX-809/N-(5-(4-fluorobenzyl)thiazol-2-yl)-2,5-dimethylfuran-3-carboxamide by ELISA relative to wild-type CFTR level; type: cell membranes; conditions: filed as activator
[2] = test system: Cystic fibrosis transmembrane conductance regulator (Homo sapiens), P13569 [F508del]; assay: (§1) Corrector activity at 3xHA-tagged full-length human CFTR F508del mutant expressed in human CFBE41o- cells assessed as restoration of plasma membrane density of channel incubated for 24 hrs in presence of VX-809/N-(5-(4-fluorobenzyl)thiazol-2-yl)-2,5-dimethylfuran-3-carboxamide by ELISA; type: cell membranes; conditions: filed as activator, dose 10.0 µM
[3] = target: Cystic fibrosis transmembrane conductance regulator (Homo sapiens, UniProt P13569, F508DEL); assay: as §1; type: cell membranes
[4] = test system: Cystic fibrosis transmembrane conductance regulator (Homo sapiens), P13569 [F508del]; assay: Corrector activity at 3xHA-tagged full-length human CFTR F508del mutant expressed in human CFBE41o- cells assessed as functional rescue of channel by measuring anion transport measured after 24 hrs in presence of VX-809/N-(5-(4-fluorobenzyl)thiazol-2-yl)-2,5-dimethylfuran-3-carboxamide by halide-sensitive YFP quenching assay relative to combination of VX-809/N-(5-(4-fluorobenzyl)thiazol-2-yl)-2,5-dimethylfuran-3-carboxamide; type: cell-based; conditions: filed as activator
[5] = test system: Cystic fibrosis transmembrane conductance regulator (Homo sapiens), P13569 [F508del]; assay: Corrector activity at 3xHA-tagged full-length human CFTR F508del mutant expressed in human CFBE41o- cells assessed as rescue of forskolin/VX-770-induced transepithelial short-circuit current measured after 24 hrs in presence of VX-809/N-(5-(4-fluorobenzyl)thiazol-2-yl)-2,5-dimethylfuran-3-carboxamide by electrophysiological method relative to wild-type CFTR activity; type: cell-based; conditions: filed as activator
[6] = test system: Cystic fibrosis transmembrane conductance regulator (Homo sapiens), P13569 [F508del]; assay: Inhibition of activity of 3xHA-tagged full-length human CFTR F508del mutant expressed in human CFBE41o- cells in presence of VX-809/N-(5-(4-fluorobenzyl)thiazol-2-yl)-2,5-dimethylfuran-3-carboxamide; type: cell-based
[7] = test system: Cystic fibrosis transmembrane conductance regulator (Homo sapiens), P13569 [F508del]; assay: Corrector activity at CFTR F508del mutant in patient-derived human HBE cells assessed as forskolin/VX-770-induced transepithelial short-circuit current in presence of VX-809/N-(5-(4-fluorobenzyl)thiazol-2-yl)-2,5-dimethylfuran-3-carboxamide by electrophysiological method (reference value: 16 %); type: cell-based; conditions: filed as activator
[8] = test system: Cystic fibrosis transmembrane conductance regulator (Homo sapiens), P13569 [S13F]; assay: Corrector activity at 3xHA-tagged full-length human CFTR S13F mutant expressed in human CFBE41o- cells assessed as restoration of plasma membrane density of channel in presence of VX-809/N-(5-(4-fluorobenzyl)thiazol-2-yl)-2,5-dimethylfuran-3-carboxamide by ELISA; type: cell membranes; conditions: filed as activator
[9] = test system: Cystic fibrosis transmembrane conductance regulator (Homo sapiens), P13569 [S492F]; assay: Corrector activity at 3xHA-tagged full-length human CFTR S492F mutant expressed in human CFBE41o- cells assessed as restoration of plasma membrane density of channel in presence of VX-809/N-(5-(4-fluorobenzyl)thiazol-2-yl)-2,5-dimethylfuran-3-carboxamide by ELISA; type: cell membranes; conditions: filed as activator
[10] = test system: Cystic fibrosis transmembrane conductance regulator (Homo sapiens), P13569 [M1101K]; assay: Corrector activity at 3xHA-tagged full-length human CFTR M1101K mutant expressed in human CFBE41o- cells assessed as restoration of plasma membrane density of channel in presence of VX-809/N-(5-(4-fluorobenzyl)thiazol-2-yl)-2,5-dimethylfuran-3-carboxamide by ELISA relative to wild-type CFTR level; type: cell membranes; conditions: filed as activator
[11] = test system: Cystic fibrosis transmembrane conductance regulator (Homo sapiens), P13569 [N1303K]; assay: Corrector activity at 3xHA-tagged full-length human CFTR N1303K mutant expressed in human CFBE41o- cells assessed as restoration of plasma membrane density of channel in presence of VX-809/N-(5-(4-fluorobenzyl)thiazol-2-yl)-2,5-dimethylfuran-3-carboxamide by ELISA relative to wild-type CFTR level; type: cell membranes; conditions: filed as activator
[12] = test system: Cystic fibrosis transmembrane conductance regulator (Homo sapiens), P13569 [R560T]; assay: Corrector activity at 3xHA-tagged full-length human CFTR R560T mutant expressed in human CFBE41o- cells assessed as restoration of plasma membrane density of channel in presence of VX-809/N-(5-(4-fluorobenzyl)thiazol-2-yl)-2,5-dimethylfuran-3-carboxamide by ELISA; type: cell membranes
[13] = test system: Cystic fibrosis transmembrane conductance regulator (Homo sapiens), P13569 [S13F]; assay: Corrector activity at 3xHA-tagged full-length human CFTR S13F mutant expressed in human CFBE41o- cells assessed as restoration of plasma membrane density of channel in presence of N-(5-(4-fluorobenzyl)thiazol-2-yl)-2,5-dimethylfuran-3-carboxamide incubated for 24 hrs by ELISA; type: cell membranes; conditions: filed as activator
[14] = test system: Cystic fibrosis transmembrane conductance regulator (Homo sapiens), P13569 [S13F]; assay: Corrector activity at 3xHA-tagged full-length human CFTR S13F mutant expressed in human CFBE41o- cells assessed as restoration of plasma membrane density of channel in presence of VX-809 incubated for 24 hrs by ELISA; type: cell membranes; conditions: filed as activator
[15] = test system: Cystic fibrosis transmembrane conductance regulator (Homo sapiens), P13569 [S13F]; assay: Corrector activity at 3xHA-tagged full-length human CFTR S13F mutant expressed in human CFBE41o- cells assessed as restoration of plasma membrane density of channel in presence of VX-661 incubated for 24 hrs by ELISA; type: cell membranes; conditions: filed as activator
[16] = test system: Cystic fibrosis transmembrane conductance regulator (Homo sapiens), P13569 [S492F]; assay: Corrector activity at 3xHA-tagged full-length human CFTR S492F mutant expressed in human CFBE41o- cells assessed as restoration of plasma membrane density of channel in presence of N-(5-(4-fluorobenzyl)thiazol-2-yl)-2,5-dimethylfuran-3-carboxamide incubated for 24 hrs by ELISA; type: cell membranes; conditions: filed as activator
[17] = test system: Cystic fibrosis transmembrane conductance regulator (Homo sapiens), P13569 [S492F]; assay: Corrector activity at 3xHA-tagged full-length human CFTR S492F mutant expressed in human CFBE41o- cells assessed as restoration of plasma membrane density of channel in presence of VX-809 incubated for 24 hrs by ELISA; type: cell membranes; conditions: filed as activator
[18] = test system: Cystic fibrosis transmembrane conductance regulator (Homo sapiens), P13569 [S492F]; assay: Corrector activity at 3xHA-tagged full-length human CFTR S492F mutant expressed in human CFBE41o- cells assessed as restoration of plasma membrane density of channel in presence of VX-661 incubated for 24 hrs by ELISA; type: cell membranes; conditions: filed as activator
[19] = test system: Cystic fibrosis transmembrane conductance regulator (Homo sapiens), P13569 [F508del]; assay: Corrector activity at 3xHA-tagged full-length human CFTR F508del mutant expressed in human CFBE41o- cells assessed as restoration of plasma membrane density of channel in presence of N-(5-(4-fluorobenzyl)thiazol-2-yl)-2,5-dimethylfuran-3-carboxamide incubated for 24 hrs by ELISA; type: cell membranes; conditions: filed as activator
[20] = test system: Cystic fibrosis transmembrane conductance regulator (Homo sapiens), P13569 [F508del]; assay: Corrector activity at 3xHA-tagged full-length human CFTR F508del mutant expressed in human CFBE41o- cells assessed as restoration of plasma membrane density of channel incubated for 24 hrs in presence of VX-809 by ELISA; type: cell membranes; conditions: filed as activator
[21] = test system: Cystic fibrosis transmembrane conductance regulator (Homo sapiens), P13569 [F508del]; assay: Corrector activity at 3xHA-tagged full-length human CFTR F508del mutant expressed in human CFBE41o- cells assessed as restoration of plasma membrane density of channel incubated for 24 hrs in presence of VX-661 by ELISA; type: cell membranes; conditions: filed as activator
[22] = test system: Cystic fibrosis transmembrane conductance regulator (Homo sapiens), P13569 [S13F]; assay: Corrector activity at 3xHA-tagged full-length human CFTR S13F mutant expressed in human CFBE41o- cells assessed as restoration of plasma membrane density of channel incubated for 24 hrs in presence of VX-445 by ELISA; type: cell membranes
[23] = test system: Cystic fibrosis transmembrane conductance regulator (Homo sapiens), P13569 [S492F]; assay: Corrector activity at 3xHA-tagged full-length human CFTR S492F mutant expressed in human CFBE41o- cells assessed as restoration of plasma membrane density of channel incubated for 24 hrs in presence of VX-445 by ELISA; type: cell membranes
[24] = test system: Cystic fibrosis transmembrane conductance regulator (Homo sapiens), P13569 [F508del]; assay: Corrector activity at 3xHA-tagged full-length human CFTR F508del mutant expressed in human CFBE41o- cells assessed as restoration of plasma membrane density of channel incubated for 24 hrs in presence of VX-445 by ELISA; type: cell membranes
[25] = test system: Cystic fibrosis transmembrane conductance regulator (Homo sapiens), P13569 [S13F]; assay: Corrector activity at 3xHA-tagged full-length human CFTR S13F mutant expressed in human CFBE41o- cells assessed as restoration of plasma membrane density of channel at 10 uM incubated for 24 hrs in presence of VX-445 by ELISA; type: cell membranes
[26] = test system: Cystic fibrosis transmembrane conductance regulator (Homo sapiens), P13569 [S492F]; assay: Corrector activity at 3xHA-tagged full-length human CFTR S492F mutant expressed in human CFBE41o- cells assessed as restoration of plasma membrane density of channel at 10 uM incubated for 24 hrs in presence of VX-661/VX-445 by ELISA; type: cell membranes; conditions: filed as activator
[27] = test system: Cystic fibrosis transmembrane conductance regulator (Homo sapiens), P13569 [F508del]; assay: Corrector activity at 3xHA-tagged full-length human CFTR F508del mutant expressed in human CFBE41o- cells assessed as restoration of plasma membrane density of channel at 10 uM incubated for 24 hrs in presence of VX-661/VX-445 by ELISA; type: cell membranes; conditions: filed as activator
[28] = test system: Cystic fibrosis transmembrane conductance regulator (Homo sapiens), P13569 [S492F]; assay: Corrector activity at 3xHA-tagged full-length human CFTR S492F mutant expressed in human CFBE41o- cells assessed as rescue of forskolin/VX-770-induced transepithelial short-circuit current at 10 uM measured after 24 hrs in presence of VX-809/N-(5-(4-fluorobenzyl)thiazol-2-yl)-2,5-dimethylfuran-3-carboxamide by electrophysiological method; type: cell-based; conditions: filed as activator
[29] = test system: Cystic fibrosis transmembrane conductance regulator (Homo sapiens), P13569 [F508del]; assay: Corrector activity at 3xHA-tagged full-length human CFTR F508del mutant expressed in human CFBE41o- cells assessed as fractional plasma membrane density at 10 uM in presence of VX-809/N-(5-(4-fluorobenzyl)thiazol-2-yl)-2,5-dimethylfuran-3-carboxamide relative to forskoli-stimulated wild-type CFTR expressed in human CFBE41o- cells; type: cell membranes; conditions: filed as activator
[30] = test system: Cystic fibrosis transmembrane conductance regulator (Homo sapiens), P13569 [F508del]; assay: Corrector activity at 3xHA-tagged full-length human CFTR F508del mutant expressed in human CFBE41o- cells assessed as […] forskolin/VX-770-induced transepithelial short-circuit current at 10 uM in presence of VX-809/N-(5-(4-fluorobenzyl)thiazol-2-yl)-2,5-dimethylfuran-3-carboxamide by electrophysiological method relative to control; type: cell-based; set-up: scale not given: the % may be the effect or the level left; conditions: filed as activator

Sequence of Cystic fibrosis transmembrane conductance regulator (Homo sapiens), P13569 [R560T] (P13569 whole entry R560T): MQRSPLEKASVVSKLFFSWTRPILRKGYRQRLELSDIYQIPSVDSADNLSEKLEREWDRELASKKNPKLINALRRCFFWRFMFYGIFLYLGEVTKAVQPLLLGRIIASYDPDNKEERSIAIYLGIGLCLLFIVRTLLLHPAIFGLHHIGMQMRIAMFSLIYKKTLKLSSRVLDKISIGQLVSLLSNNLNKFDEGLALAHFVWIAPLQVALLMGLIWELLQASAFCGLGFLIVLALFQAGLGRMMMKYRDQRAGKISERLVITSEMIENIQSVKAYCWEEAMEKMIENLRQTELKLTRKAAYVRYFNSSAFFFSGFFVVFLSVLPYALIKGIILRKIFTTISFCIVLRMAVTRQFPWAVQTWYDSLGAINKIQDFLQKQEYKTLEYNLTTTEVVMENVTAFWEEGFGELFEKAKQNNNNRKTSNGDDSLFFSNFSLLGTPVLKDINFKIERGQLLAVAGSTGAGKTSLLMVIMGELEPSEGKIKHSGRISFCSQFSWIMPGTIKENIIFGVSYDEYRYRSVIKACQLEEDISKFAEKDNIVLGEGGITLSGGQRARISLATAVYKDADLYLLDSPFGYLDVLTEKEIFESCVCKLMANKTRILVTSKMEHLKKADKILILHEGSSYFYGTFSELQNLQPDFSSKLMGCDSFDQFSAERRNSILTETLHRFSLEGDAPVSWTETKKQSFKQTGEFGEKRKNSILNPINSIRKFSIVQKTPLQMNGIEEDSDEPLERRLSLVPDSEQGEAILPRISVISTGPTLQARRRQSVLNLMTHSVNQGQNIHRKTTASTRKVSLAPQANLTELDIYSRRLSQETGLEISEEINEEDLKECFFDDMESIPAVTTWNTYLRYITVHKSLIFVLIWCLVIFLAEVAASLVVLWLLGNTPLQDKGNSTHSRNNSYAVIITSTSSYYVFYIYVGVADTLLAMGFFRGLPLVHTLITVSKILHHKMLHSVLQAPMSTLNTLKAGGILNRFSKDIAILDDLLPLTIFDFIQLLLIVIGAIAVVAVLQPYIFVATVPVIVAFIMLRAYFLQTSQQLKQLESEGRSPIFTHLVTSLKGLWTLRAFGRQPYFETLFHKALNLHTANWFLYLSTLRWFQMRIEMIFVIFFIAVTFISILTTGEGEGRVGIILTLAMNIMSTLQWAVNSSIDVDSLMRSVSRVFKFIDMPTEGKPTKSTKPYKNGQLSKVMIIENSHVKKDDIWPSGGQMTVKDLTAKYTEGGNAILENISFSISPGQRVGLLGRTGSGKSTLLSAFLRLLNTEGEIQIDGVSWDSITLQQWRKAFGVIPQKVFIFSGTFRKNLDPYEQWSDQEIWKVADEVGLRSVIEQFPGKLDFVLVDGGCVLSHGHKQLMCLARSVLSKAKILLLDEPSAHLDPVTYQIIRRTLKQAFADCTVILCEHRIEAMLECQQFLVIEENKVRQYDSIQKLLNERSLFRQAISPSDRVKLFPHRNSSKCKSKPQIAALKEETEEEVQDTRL
Sequence of Cystic fibrosis transmembrane conductance regulator (Homo sapiens), P13569 [N1303K] (P13569 whole entry N1303K): as the sequence (P13569 whole entry R560T) above, with T560R, N1303K counted along it
Sequence of Cystic fibrosis transmembrane conductance regulator (Homo sapiens), P13569 [F508del] (P13569 as listed by the source): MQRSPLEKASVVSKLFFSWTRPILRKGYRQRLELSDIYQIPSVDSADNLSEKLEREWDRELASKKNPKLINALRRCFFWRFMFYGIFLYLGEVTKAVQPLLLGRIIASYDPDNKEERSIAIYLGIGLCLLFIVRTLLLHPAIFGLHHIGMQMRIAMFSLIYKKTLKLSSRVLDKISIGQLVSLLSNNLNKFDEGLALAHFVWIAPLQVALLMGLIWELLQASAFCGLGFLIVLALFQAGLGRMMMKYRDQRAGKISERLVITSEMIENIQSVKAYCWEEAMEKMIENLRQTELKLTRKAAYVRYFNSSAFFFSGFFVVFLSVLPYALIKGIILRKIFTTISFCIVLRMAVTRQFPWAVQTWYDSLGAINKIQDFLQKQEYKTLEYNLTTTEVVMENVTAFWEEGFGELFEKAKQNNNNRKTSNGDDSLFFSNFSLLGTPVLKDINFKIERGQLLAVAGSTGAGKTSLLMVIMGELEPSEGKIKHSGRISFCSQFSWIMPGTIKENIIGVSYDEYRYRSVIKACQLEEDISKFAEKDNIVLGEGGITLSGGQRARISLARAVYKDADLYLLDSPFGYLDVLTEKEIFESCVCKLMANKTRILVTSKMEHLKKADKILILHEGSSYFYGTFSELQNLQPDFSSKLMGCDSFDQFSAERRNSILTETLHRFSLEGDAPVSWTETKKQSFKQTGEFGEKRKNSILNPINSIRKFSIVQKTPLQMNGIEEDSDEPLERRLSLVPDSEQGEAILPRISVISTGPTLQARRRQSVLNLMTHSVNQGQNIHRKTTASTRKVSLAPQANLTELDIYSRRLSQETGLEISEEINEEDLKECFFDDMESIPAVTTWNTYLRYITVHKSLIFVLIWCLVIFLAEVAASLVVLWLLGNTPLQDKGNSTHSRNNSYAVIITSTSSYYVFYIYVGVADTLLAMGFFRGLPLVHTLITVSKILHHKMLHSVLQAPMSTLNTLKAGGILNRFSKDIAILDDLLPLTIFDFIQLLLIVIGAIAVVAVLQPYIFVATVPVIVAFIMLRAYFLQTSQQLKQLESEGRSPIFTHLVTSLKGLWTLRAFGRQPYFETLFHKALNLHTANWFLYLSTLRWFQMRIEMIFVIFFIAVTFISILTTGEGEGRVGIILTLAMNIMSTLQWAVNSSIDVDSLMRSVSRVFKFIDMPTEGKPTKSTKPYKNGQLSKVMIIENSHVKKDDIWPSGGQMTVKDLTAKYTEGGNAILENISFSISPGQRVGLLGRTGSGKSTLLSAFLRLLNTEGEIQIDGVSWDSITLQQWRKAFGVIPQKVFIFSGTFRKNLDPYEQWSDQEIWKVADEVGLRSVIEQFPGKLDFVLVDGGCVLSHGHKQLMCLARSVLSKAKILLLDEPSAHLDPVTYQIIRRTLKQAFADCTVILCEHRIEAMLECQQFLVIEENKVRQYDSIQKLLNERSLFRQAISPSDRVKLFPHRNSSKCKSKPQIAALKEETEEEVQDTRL
Sequence of Cystic fibrosis transmembrane conductance regulator (P13569 as listed by the source): as above
Sequence of Cystic fibrosis transmembrane conductance regulator (Homo sapiens), P13569 [M1101K] (P13569 whole entry M1101K): as the sequence (P13569 whole entry R560T) above, with T560R, M1101K counted along it
Sequence of Cystic fibrosis transmembrane conductance regulator (Homo sapiens), P13569 [S492F] (P13569 whole entry S492F): as the sequence (P13569 whole entry R560T) above, with S492F, T560R counted along it
Sequence of Cystic fibrosis transmembrane conductance regulator (Homo sapiens), P13569 [S13F] (P13569 whole entry S13F): as the sequence (P13569 whole entry R560T) above, with S13F, T560R counted along it

SMILES	Activity [1]	Activity [2]	EC50 [3]	Activity [4]	Activity [8]	Activity [9]	Activity [10]	Activity [11]	Activity [12]	Activity [13]	Activity [14]	Activity [15]	Activity [16]	Activity [17]	Activity [18]	Activity [19]	Activity [20]	Activity [21]	Activity [22]	Activity [23]	further results
Cc1cc(=O)[nH]c(-n2nc(-c3ccccc3)cc2NC(=O)C2(c3ccc(Cl)cc3)CCCC2)n1	67%																				
CC(C)(Oc1ccc(Cl)cc1)C(=O)Nc1cc(-c2cccs2)nn1-c1nc2c(c(=O)[nH]1)CCCC2		Dose-Dependent Effect	6.16 µM	250%	Active	Active	15%	15%	inactive	Active	Active	Active	Active	Active	Active	Active	Active	Active	inactive	inactive	Activity [5]: 80%; inhibition [6]: inactive; Activity [7]: 50%; Activity [24]: inactive; Activity [25]: inactive; Activity [26]: Active; Activity [27]: Active; Activity [28]: Active
Cc1nc(-n2nc(-c3cccs3)cc2NC(=O)C2(c3ccc(Cl)cc3)CCCC2)[nH]c(=O)c1C	95%	Dose-Dependent Effect	1.79 µM	250%	Active	Active	15%	15%	inactive	Active	Active	Active	Active	Active	Active	Active	Active	Active	inactive	inactive	Activity [29]: 68%; Activity [30]: -25%; Activity [24]: inactive; Activity [25]: inactive
O=C(Nc1cc(-c2cccs2)nn1-c1nc2c(c(=O)[nH]1)CCCC2)C1(c2ccc(Cl)cc2)CCCC1		Dose-Dependent Effect	3.05 µM	250%	Active	Active	15%	15%	inactive	Active	Active	Active	Active	Active	Active	Active	Active	Active	inactive	inactive	Activity [5]: 80%; Activity [29]: 84%; Activity [30]: -14%; Activity [7]: 50%; Activity [24]: inactive; Activity [25]: inactive; Activity [26]: Active; Activity [27]: Active; Activity [28]: Active
Cc1nc(-n2nc(-c3ccccc3)cc2NC(=O)C2(c3ccc(Cl)cc3)CCCC2)[nH]c(=O)c1C	102%																				
